Test results reported in publication PMC7180638, “Synthesis of Pyrrolidine Monocyclic Analogues of Pochonicine and Its Stereoisomers: Pursuit of Simplified Structures and Potent β-N-Acetylhexosaminidase Inhibition” (Molecules, 2020).
Where a name gives a salt, the structure may show the parent alone. Read-outs that look alike come from different tables or passages of the source.

Assays:
Type in all cases: biochemical
[1] = target: Rat intestinal maltase; assay: Rat intestinal maltase inhibition; conditions: α-Glucosidase
Method: (§1) With rat intestinal maltase as an exception, other enzymes were purchased from Sigma-Aldrich Chemical Co. (St. Louis, MO, USA). Brush border membranes prepared from rat small intestine according to the method of Kessler et al. were assayed at pH 6.8 for rat intestinal maltase using maltose. The released D-glucose was determined colorimetrically using the Glucose CII-test Wako (Wako Pure Chemical Ind.; Osaka, Japan). Other glycosidase activities were determined using an appropriate p-nitrophenyl glycoside as substrate in a buffer solution at the optimal pH value of each enzyme. The reaction was stopped by adding 400 mM Na2CO3. The released p-nitrophenol was measured spectrometrically at 400 nm.

[2] = target: α-L-Rhamnosidase (P. decumbens); assay: α-L-Rhamnosidase (P. decumbens) inhibition
Method: as §1

[3] = target: β-N-Acetylhexosaminidase (Bovine liver); assay: β-N-Acetylhexosaminidase (bovine liver) inhibition; conditions: for IC50: β-N-Acetylhexosaminidase (β-GlcNAcase); for Inhibition % at 1000 μM: β-N-Acetylhexosaminidase
Method: as §1

[4] = target: T1, α-L-Fucosidase (Bovine kidney) (Bos taurus, UniProt Q2KIM0); assay: α-L-Fucosidase (bovine kidney) inhibition
T1 construct: purchased Sigma-Aldrich Chemical Co; host or cells: bovine kidney
T1 sequence (Q2KIM0 23-468): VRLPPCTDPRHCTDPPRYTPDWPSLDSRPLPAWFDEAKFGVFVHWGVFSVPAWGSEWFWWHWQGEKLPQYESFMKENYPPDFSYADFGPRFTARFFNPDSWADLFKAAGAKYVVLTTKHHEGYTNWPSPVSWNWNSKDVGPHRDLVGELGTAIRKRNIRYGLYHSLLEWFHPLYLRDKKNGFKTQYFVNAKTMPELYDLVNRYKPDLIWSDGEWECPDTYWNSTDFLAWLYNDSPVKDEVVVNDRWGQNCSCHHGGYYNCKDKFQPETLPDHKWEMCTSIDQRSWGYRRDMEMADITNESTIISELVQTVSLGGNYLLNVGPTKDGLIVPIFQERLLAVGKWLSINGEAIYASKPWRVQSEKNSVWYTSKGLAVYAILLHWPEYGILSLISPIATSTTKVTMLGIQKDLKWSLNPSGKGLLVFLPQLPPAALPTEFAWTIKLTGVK
Method: as §1

[5] = target: T2, α-Galactosidase (Coffee beans) (Coffea arabica, UniProt Q42656); assay: α-Galactosidase (coffee beans) inhibition
T2 construct: purchased Sigma-Aldrich Chemical Co
Method: as §1

[6] = target: T3, β-Glucuronidase (E. coli) (Escherichia coli, UniProt P05804); assay: β-Glucuronidase (E. coli) inhibition
T3 construct: purchased Sigma-Aldrich Chemical Co
Method: as §1

[7] = target: β-N-Acetylhexosaminidase (HL60); assay: β-N-Acetylhexosaminidase (HL60) inhibition; conditions: for IC50: β-N-Acetylhexosaminidase (β-GlcNAcase); for Inhibition % at 1000 μM: β-N-Acetylhexosaminidase
Method: as §1

[8] = target: T4, Amyloglucosidase (A. niger) (Aspergillus niger, UniProt P69328); assay: Amyloglucosidase (A. niger) inhibition
T4 construct: purchased Sigma-Aldrich Chemical Co
Method: as §1

[9] = target: T5, α-Glucosidase (Rice) (Oryza sativa subsp. japonica, UniProt Q653V7); assay: α-Glucosidase (rice) inhibition
T5 construct: purchased Sigma-Aldrich Chemical Co
Method: as §1

[10] = target: β-N-Acetylhexosaminidase (Jack bean); assay: β-N-Acetylhexosaminidase (Jack bean) inhibition; conditions: β-N-Acetylhexosaminidase (β-GlcNAcase), read-out: IC50
Method: as §1

[11] = target: T6, β-Glucuronidase (Bovine liver) (Bos taurus, UniProt A3KMY8); assay: β-Glucuronidase (bovine liver) inhibition
T6 construct: purchased Sigma-Aldrich Chemical Co; host or cells: bovine liver
T6 sequence (A3KMY8 1-652): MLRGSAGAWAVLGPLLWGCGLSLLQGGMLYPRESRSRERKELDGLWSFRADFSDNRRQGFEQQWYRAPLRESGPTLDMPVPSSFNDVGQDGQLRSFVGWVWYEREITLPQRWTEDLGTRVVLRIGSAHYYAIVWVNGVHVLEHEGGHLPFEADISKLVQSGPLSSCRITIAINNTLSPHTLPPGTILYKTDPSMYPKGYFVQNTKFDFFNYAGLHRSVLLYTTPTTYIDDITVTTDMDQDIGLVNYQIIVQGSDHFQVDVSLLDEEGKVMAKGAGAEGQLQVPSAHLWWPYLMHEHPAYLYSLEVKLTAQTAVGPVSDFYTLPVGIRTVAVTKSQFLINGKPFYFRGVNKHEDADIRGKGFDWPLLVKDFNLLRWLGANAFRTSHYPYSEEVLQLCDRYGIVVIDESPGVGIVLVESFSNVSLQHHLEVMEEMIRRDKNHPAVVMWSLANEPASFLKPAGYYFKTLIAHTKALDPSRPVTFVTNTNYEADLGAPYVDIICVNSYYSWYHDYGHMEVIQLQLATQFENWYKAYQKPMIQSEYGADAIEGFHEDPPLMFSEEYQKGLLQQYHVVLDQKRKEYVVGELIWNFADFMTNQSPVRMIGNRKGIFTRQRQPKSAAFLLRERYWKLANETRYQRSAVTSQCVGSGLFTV
Method: as §1

[12] = target: α-Glucosidase (Yeast) (Saccharomyces cerevisiae, UniProt P53341); assay: α-Glucosidase (yeast) inhibition
Method: as §1

[13] = target: T7, β-Galactosidase (Bovine liver) (Bos taurus, UniProt F1MNT6); assay: β-Galactosidase (bovine liver) inhibition
T7 sequence (F1MNT6 1-469): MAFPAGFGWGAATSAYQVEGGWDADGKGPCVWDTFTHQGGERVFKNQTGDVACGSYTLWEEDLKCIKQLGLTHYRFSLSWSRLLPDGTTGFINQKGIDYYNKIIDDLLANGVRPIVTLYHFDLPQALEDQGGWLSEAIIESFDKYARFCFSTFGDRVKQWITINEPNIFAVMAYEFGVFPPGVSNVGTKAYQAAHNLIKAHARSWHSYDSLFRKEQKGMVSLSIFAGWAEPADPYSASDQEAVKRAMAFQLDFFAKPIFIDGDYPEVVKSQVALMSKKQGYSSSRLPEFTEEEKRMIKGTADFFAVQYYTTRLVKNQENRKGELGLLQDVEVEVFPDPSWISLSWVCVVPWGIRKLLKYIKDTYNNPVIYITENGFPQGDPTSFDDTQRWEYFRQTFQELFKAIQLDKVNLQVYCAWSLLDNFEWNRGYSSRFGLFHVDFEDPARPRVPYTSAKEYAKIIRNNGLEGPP
Method: as §1

[14] = 1000 μM, read-out: Inhibition % at 1000 μM
[15] = read-out: Inhibition % at 1000 μM
[16] = α-Glucosidase, Yeast, read-out: IC50

T5 sequence (Q653V7 34-885): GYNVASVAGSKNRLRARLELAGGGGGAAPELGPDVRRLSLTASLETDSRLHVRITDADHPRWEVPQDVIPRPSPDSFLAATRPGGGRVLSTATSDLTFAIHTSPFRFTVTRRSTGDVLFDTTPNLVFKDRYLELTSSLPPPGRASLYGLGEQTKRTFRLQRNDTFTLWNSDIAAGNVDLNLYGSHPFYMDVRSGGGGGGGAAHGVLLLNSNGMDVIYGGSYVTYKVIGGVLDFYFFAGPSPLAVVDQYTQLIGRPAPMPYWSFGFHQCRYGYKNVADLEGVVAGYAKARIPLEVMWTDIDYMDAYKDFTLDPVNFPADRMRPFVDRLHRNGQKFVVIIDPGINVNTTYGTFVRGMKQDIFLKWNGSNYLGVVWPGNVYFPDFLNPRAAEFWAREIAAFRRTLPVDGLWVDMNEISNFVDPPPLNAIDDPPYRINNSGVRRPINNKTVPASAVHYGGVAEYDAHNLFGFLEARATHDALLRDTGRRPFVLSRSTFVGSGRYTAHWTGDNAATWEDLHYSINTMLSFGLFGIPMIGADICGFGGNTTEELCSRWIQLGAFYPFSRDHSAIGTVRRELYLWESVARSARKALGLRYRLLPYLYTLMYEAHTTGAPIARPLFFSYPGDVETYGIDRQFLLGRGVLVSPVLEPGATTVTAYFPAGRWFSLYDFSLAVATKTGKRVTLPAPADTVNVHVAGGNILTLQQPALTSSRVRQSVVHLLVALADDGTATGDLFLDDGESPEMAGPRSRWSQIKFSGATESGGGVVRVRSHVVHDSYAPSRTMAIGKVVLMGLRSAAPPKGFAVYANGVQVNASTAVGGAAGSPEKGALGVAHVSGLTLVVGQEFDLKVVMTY
T2 sequence (Q42656 16-378): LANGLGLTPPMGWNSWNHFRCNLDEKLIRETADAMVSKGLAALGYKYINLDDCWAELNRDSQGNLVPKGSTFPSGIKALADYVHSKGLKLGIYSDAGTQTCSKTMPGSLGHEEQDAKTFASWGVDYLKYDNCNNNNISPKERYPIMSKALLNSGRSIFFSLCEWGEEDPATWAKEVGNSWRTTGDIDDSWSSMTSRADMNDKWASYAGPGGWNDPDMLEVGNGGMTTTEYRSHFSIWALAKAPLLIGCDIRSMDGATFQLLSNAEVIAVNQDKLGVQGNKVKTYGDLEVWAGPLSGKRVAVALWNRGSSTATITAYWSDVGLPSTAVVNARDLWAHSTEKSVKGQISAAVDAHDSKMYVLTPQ
T3 sequence (P05804 whole entry): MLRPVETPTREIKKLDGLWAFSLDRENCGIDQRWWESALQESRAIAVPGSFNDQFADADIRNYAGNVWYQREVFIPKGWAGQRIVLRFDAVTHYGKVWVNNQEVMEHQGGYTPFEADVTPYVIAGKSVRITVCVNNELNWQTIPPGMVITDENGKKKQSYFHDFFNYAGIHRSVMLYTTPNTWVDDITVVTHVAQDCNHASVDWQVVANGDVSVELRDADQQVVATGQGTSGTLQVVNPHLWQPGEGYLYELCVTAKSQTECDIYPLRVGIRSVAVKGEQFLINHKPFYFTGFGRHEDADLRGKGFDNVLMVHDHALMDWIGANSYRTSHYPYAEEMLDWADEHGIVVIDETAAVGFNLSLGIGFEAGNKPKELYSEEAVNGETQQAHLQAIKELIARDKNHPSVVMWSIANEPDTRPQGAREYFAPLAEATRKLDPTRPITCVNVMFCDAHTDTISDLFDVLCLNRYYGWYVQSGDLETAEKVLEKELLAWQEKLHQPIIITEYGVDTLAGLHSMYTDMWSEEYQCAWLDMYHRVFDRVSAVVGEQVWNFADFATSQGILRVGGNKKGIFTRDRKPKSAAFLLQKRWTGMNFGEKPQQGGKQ
T4 sequence (P69328 25-640): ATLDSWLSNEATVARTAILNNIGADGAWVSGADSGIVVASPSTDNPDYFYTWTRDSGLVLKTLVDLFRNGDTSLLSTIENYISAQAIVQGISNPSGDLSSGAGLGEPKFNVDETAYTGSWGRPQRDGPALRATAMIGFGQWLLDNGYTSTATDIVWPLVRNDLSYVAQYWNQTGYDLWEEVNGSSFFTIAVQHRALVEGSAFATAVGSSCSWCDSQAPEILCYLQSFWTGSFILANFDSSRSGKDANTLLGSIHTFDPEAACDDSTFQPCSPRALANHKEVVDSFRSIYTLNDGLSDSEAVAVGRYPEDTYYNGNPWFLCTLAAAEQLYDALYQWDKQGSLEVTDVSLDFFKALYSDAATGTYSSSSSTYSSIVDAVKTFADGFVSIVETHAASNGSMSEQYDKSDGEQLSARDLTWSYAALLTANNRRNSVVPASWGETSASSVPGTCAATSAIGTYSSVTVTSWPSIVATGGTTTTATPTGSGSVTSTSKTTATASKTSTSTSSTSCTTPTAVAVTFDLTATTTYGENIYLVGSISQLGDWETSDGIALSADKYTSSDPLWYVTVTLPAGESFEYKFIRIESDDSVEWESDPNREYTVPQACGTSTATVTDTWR
Chain of α-Glucosidase (Yeast) (P53341 whole entry): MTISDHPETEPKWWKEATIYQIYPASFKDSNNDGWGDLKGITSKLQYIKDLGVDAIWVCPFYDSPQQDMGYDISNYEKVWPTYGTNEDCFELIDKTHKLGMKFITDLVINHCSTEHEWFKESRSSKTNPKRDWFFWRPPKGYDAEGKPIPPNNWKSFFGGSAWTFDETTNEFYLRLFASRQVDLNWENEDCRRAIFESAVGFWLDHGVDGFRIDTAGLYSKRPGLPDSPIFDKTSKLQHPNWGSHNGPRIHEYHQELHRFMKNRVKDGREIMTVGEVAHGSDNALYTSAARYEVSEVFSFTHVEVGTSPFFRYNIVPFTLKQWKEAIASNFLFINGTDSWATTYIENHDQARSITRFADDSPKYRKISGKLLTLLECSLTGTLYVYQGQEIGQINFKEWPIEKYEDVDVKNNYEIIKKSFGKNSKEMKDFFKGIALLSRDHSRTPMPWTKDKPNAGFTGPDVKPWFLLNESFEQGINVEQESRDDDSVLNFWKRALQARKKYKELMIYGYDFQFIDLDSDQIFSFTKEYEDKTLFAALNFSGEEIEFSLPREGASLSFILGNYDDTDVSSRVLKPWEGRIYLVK

| Compound | IC50 [2] | Inhibition % at 1000 μM [2] | inhibition at 1000 µM [4, 14] | inhibition at 1000 µM ([4]; read-out: IC50) | inhibition at 1000 µM [5, 14] | inhibition at 1000 µM ([5]; read-out: IC50) | inhibition at 1000 µM [6, 14] | inhibition at 1000 µM ([6]; read-out: IC50) | inhibition at 1000 µM [8, 14] | inhibition at 1000 µM ([8]; read-out: IC50) | IC50 [10] | inhibition at 1000 µM [11, 14] | inhibition at 1000 µM ([11]; read-out: IC50) | inhibition at 1000 µM [13, 14] | inhibition at 1000 µM ([13]; read-out: IC50) | inhibition at 1000 µM [12, 15] | inhibition at 1000 µM [12, 16] | IC50 [1] | inhibition at 1000 µM [9, 14] | inhibition at 1000 µM ([9]; read-out: IC50) | other results |
| --- | --- | --- | --- | --- | --- | --- | --- | --- | --- | --- | --- | --- | --- | --- | --- | --- | --- | --- | --- | --- | --- |
| CC(=O)NC[C@H]1N[C@H](CO)[C@@H](O)[C@@H]1O [4·HCl, 1-N-acetylamino-2,5-imino-1,2,5-trideoxy-D-mannitol hydrochloride] | NI (No Inhibition (less than 50% at 1000 μM)) | 6.5% | 1.5% | < 50% | 1.1% | < 50% | 0.6% | < 50% | 40.6% | < 50% | 0.21 µM | 1.7% | < 50% | – | – | – | – | – | – | – | IC50 ([1]; read-out: IC50): 211 µM; IC50 ([3]; read-out: IC50): 4.7 µM; IC50 ([7]; read-out: IC50): 34 µM; IC50 [9]: 1000 µM; IC50 ([12]; α-Glucosidase, Yeast): 450 µM |
| CC(=O)NC[C@@H]1N[C@@H](CO)[C@H](O)[C@H]1O [A-10, 1-N-acetylamino-2,5-imino-1,2,5-trideoxy-L-mannitol hydrochloride] | NI (No Inhibition (less than 50% at 1000 μM)) | 10.1% | 0% | < 50% | 0% | < 50% | 0% | < 50% | 5.5% | < 50% | 202 µM | 4.6% | < 50% | 1.6% | < 50% | 0.5% | < 50% | – | – | – | IC50 ([1]; read-out: IC50): 92 µM; IC50 ([3]; read-out: IC50): 943 µM; IC50 [7]: NI (No Inhibition (less than 50% at 1000 μM)); Inhibition % at 1000 μM [7]: 12.7%; IC50 [9]: 568 µM |
| CC(=O)NC[C@@H]1N[C@@H](CO)[C@@H](O)[C@H]1O [C-10, 1-N-acetylamino-2,5-imino-1,2,5-trideoxy-L-altritol hydrochloride] | NI (No Inhibition (less than 50% at 1000 μM)) | 3.6% | 4.9% | < 50% | 0.36% | < 50% | 0.3% | < 50% | 1.9% | < 50% | 129 µM | 0% | < 50% | 1.3% | < 50% | 0% | < 50% | NI (No Inhibition (less than 50% at 1000 μM)) | 18.2% | < 50% | Inhibition % at 1000 μM [1]: 35.4%; IC50 [3]: NI (No Inhibition (less than 50% at 1000 μM)); Inhibition % at 1000 μM [3]: 36.3%; IC50 [7]: NI (No Inhibition (less than 50% at 1000 μM)); Inhibition % at 1000 μM [7]: 3.9% |
| CC(=O)NC[C@H]1N[C@H](CO)[C@H](O)[C@@H]1O [D-10, 1-N-acetylamino-2,5-imino-1,2,5-trideoxy-D-altritol hydrochloride] | NI (No Inhibition (less than 50% at 1000 μM)) | 8.3% | 1.7% | < 50% | – | – | 0% | < 50% | 3.8% | < 50% | 0.12 µM | 1.3% | < 50% | 3.3% | < 50% | 0% | < 50% | NI (9.24%) (No Inhibition (less than 50% at 1000 μM)) | 26.1% | < 50% | IC50 [5]: 380 µM; IC50 ([7]; read-out: IC50): 10 µM |
| CC(=O)NC[C@H]1N[C@@H](CO)[C@@H](O)[C@@H]1O [E-10a, 1-N-acetylamino-2,5-imino-1,2,5-trideoxy-D-glucitol hydrochloride] | NI (No Inhibition (less than 50% at 1000 μM)) | 11.8% | 41.7% | < 50% | 0.36% | < 50% | 0% | < 50% | 4% | < 50% | 10 µM | 0% | < 50% | 4.9% | < 50% | 0% | < 50% | NI (No Inhibition (less than 50% at 1000 μM)) | 15.9% | < 50% | Inhibition % at 1000 μM [1]: 12.7%; IC50 ([3]; read-out: IC50): 95 µM; IC50 ([7]; read-out: IC50): 591 µM |
| CC(=O)NC[C@@H]1N[C@@H](CO)[C@@H](O)[C@@H]1O [E-10b, 1-N-acetylamino-2,5-imino-1,2,5-trideoxy-L-iditol hydrochloride] | NI (No Inhibition (less than 50% at 1000 μM)) | 30.8% | 20.5% | < 50% | 0% | < 50% | 0% | < 50% | 6.4% | < 50% | 115 µM | 4.3% | < 50% | 3.9% | < 50% | 0% | < 50% | NI (No Inhibition (less than 50% at 1000 μM)) | 0% | < 50% | Inhibition % at 1000 μM [1]: 0%; IC50 [3]: NI (No Inhibition (less than 50% at 1000 μM)); Inhibition % at 1000 μM [3]: 38.4%; IC50 [7]: NI (No Inhibition (less than 50% at 1000 μM)); Inhibition % at 1000 μM [7]: 4.5% |
